Key:
Test in all cases: relative viability (nuclei count vs DMSO), 5 days (fraction); higher = more cells survive
Avagacestat + Vorinostat = compound: NC(=O)[C@@H](CCC(F)(F)F)N(Cc1ccc(-c2ncon2)cc1F)S(=O)(=O)c1ccc(Cl)cc1 [Avagacestat] + O=C(CCCCCCC(=O)Nc1ccccc1)NO [Vorinostat] (partner 1 µM)
In short: (§1)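 A single step with final 0.05% Triton X-100, 1% formaldehyde and 1 ug/ml Hoechst fixed the cells and stained nuclei 5 days after treatment. Lung cancer cell lines in 1536-well plates had been treated by pin tool the day after seeding with one drug alone or a fixed anchor-drug dose plus five library-drug doses (not always all listed) in √10 steps, and nuclei were counted on 4× images. Relative viability is the ratio of nuclei in treated wells to nuclei in vehicle wells, taken as the median of duplicate plates.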

Avagacestat + Crizotinib = compound: NC(=O)[C@@H](CCC(F)(F)F)N(Cc1ccc(-c2ncon2)cc1F)S(=O)(=O)c1ccc(Cl)cc1 [Avagacestat] + C[C@@H](Oc1cc(-c2cnn(C3CCNCC3)c2)cnc1N)c1c(Cl)ccc(F)c1Cl [Crizotinib] (partner 1 µM)
In short: as §1

Avagacestat + Tozasertib = compound: NC(=O)[C@@H](CCC(F)(F)F)N(Cc1ccc(-c2ncon2)cc1F)S(=O)(=O)c1ccc(Cl)cc1 [Avagacestat] + Cc1cc(Nc2cc(N3CCN(C)CC3)nc(Sc3ccc(NC(=O)C4CC4)cc3)n2)n[nH]1 [Tozasertib] (partner 0.1 µM)
In short: as §1

Avagacestat + Navitoclax = compound: NC(=O)[C@@H](CCC(F)(F)F)N(Cc1ccc(-c2ncon2)cc1F)S(=O)(=O)c1ccc(Cl)cc1 [Avagacestat] + CC1(C)CCC(c2ccc(Cl)cc2)=C(CN2CCN(c3ccc(C(=O)NS(=O)(=O)c4ccc(N[C@H](CCN5CCOCC5)CSc5ccccc5)c(S(=O)(=O)C(F)(F)F)c4)cc3)CC2)C1 [Navitoclax] (partner 0.5 µM)
In short: as §1

| Cell Line | relative viability (Avagacestat + Vorinostat; first compound 0.08 µM) | relative viability (Avagacestat + Vorinostat; first compound 0.253 µM) | relative viability (Avagacestat + Vorinostat; first compound 0.8 µM) | relative viability (Avagacestat + Vorinostat; first compound 2.53 µM) | relative viability (Avagacestat + Vorinostat; first compound 8 µM) | relative viability (Avagacestat + Crizotinib; first compound 0.08 µM) | relative viability (Avagacestat + Crizotinib; first compound 0.253 µM) | relative viability (Avagacestat + Crizotinib; first compound 0.8 µM) | relative viability (Avagacestat + Crizotinib; first compound 2.53 µM) | relative viability (Avagacestat + Crizotinib; first compound 8 µM) | relative viability (Avagacestat + Tozasertib; first compound 0.08 µM) | relative viability (Avagacestat + Tozasertib; first compound 0.253 µM) | relative viability (Avagacestat + Tozasertib; first compound 0.8 µM) | relative viability (Avagacestat + Tozasertib; first compound 2.53 µM) | relative viability (Avagacestat + Tozasertib; first compound 8 µM) | relative viability (Avagacestat + Navitoclax; first compound 0.08 µM) | relative viability (Avagacestat + Navitoclax; first compound 0.253 µM) | relative viability (Avagacestat + Navitoclax; first compound 0.8 µM) | relative viability (Avagacestat + Navitoclax; first compound 2.53 µM) | relative viability (Avagacestat + Navitoclax; first compound 8 µM) |
| --- | --- | --- | --- | --- | --- | --- | --- | --- | --- | --- | --- | --- | --- | --- | --- | --- | --- | --- | --- | --- |
| EPLC-272H | 0.413 | 0.318 | 0.539 | 0.367 | 0.321 | 1.06 | 0.988 | 1.03 | 0.969 | 0.799 | 0.186 | 0.48 | 0.152 | 0.249 | 0.203 | 1.51 | 1.13 | 1.32 | 1.21 | 0.964 |
| LCLC-97TM1 | 1.01 | 0.847 | 0.862 | 0.838 | 0.57 | 0.317 | 0.289 | 0.301 | 0.241 | 0.397 | 0.221 | 0.206 | 0.208 | 0.183 | 0.181 | 0.467 | 0.409 | 0.39 | 0.128 | 0.341 |
| NCI-H3122 | 1.07 | 1.4 | 1.01 | 1.02 | 0.918 | 0.318 | 0.287 | 0.291 | 0.289 | 0.288 | 0.446 | 0.517 | 0.419 | – | 0.384 | 0.95 | 1.09 | 1.08 | 1.01 | 1.03 |
| HCC-15 | 0.976 | 1.03 | 0.979 | 0.796 | 0.818 | 0.871 | 0.911 | 0.695 | 0.715 | 0.779 | 0.404 | 0.461 | 0.434 | 0.337 | 0.167 | 0.87 | 0.806 | 0.799 | 0.732 | 0.591 |
| SK-LU-1 | 0.885 | 0.714 | 0.865 | 0.636 | 0.71 | 0.843 | 0.858 | 0.946 | 0.786 | 0.753 | 0.317 | 0.318 | 0.329 | 0.269 | 0.31 | 1.11 | 1.08 | 1 | 0.706 | 0.93 |
| NCI-H1944 | 0.716 | 0.635 | 0.497 | 0.554 | 0.54 | 1.09 | 1.2 | 0.958 | 0.915 | 0.919 | 0.256 | 0.314 | 0.232 | 0.222 | 0.257 | 1.14 | 1.09 | 1.03 | 0.989 | 0.993 |
| HARA | 0.572 | 0.551 | 0.524 | 0.716 | 0.549 | 1.23 | 1.27 | 1.06 | 1.03 | 0.76 | 0.0944 | 0.0986 | 0.0937 | 0.0995 | 0.145 | 1.39 | 1.27 | 1.23 | 1.17 | 1.2 |
| NCI-H1650 | 0.593 | 0.692 | 0.51 | 0.599 | 0.67 | 1.07 | 0.967 | 1.37 | 0.916 | 1.06 | 0.47 | 0.378 | 0.468 | 0.393 | 0.333 | 1.1 | 1.31 | 1.52 | 1.43 | 1.12 |
| NCI-H2228 | 0.752 | 0.787 | 0.569 | 0.641 | 0.511 | 0.472 | 0.487 | 0.427 | 0.465 | 0.423 | 0.206 | 0.255 | 0.206 | 0.224 | 0.242 | 1.25 | 1.19 | 1.08 | 0.903 | 0.956 |
| NCI-H596 | 0.591 | 0.643 | 0.609 | 0.588 | 0.627 | 1.1 | 0.944 | 1.02 | 0.78 | 0.925 | 0.979 | 0.784 | 0.774 | 0.754 | 0.827 | 1.21 | 1.02 | 0.928 | 0.792 | 0.865 |
| NCI-H2170 | 1.35 | 0.995 | 0.821 | 0.876 | 0.617 | 1.27 | 1.59 | 1.2 | 1.38 | 0.976 | 0.807 | 0.782 | 0.812 | 0.72 | 0.646 | 0.745 | 0.594 | 0.621 | 0.417 | 0.548 |
| NCI-H2023 | 0.625 | 0.554 | 0.617 | 0.471 | 0.6 | 0.751 | 0.78 | 0.583 | 0.577 | 0.602 | 0.513 | 0.479 | 0.396 | 0.289 | 0.254 | 1.14 | 1.28 | 1.12 | 0.834 | 0.894 |

Reference: the supplement of paper PMC10307832
